The values that follow come from ChEMBL document CHEMBL4190326, “Novel Gomisin B analogues as potential cytotoxic agents: Design, synthesis, biological evaluation and docking studies” (Eur J Med Chem, 2017).

The term IC50 denotes the concentration at which inhibition is half-maximal.

One data set has as its system MDA-MB-231. As to the kind of experiment: Cytotoxicity against human MDA-MB-231 cells assessed as reduction in cell viability measured after 48 hrs by SRB assay. The format is functional, cell-based. Particulars: MDA-MB-231, 48 h. Background: Sulforhodamine B stains cellular protein and so reports cell mass.
In the next data set the test system is A549. As to the kind of experiment: Cytotoxicity against human A549 cells assessed as reduction in cell viability measured after 48 hrs by SRB assay. The format is functional, cell-based. Particulars: A549, 48 h.
A short description of data set [1]: Selectivity index, ratio of IC50 for HEK293 cells to IC50 for human DU145 cells. The format is toxicity. Particulars: HEK293 cells versus DU145 cells, read-out: Ratio IC50.
For another data set, the system named is IMR-32. The data set can be described thus: Cytotoxicity against human IMR32 cells assessed as reduction in cell viability measured after 48 hrs by SRB assay. The format is functional, cell-based. Particulars: IMR-32, 48 h.
The subject of a further data set is SiHa. The data set can be described thus: Cytotoxicity against human SiHa cells assessed as reduction in cell viability measured after 48 hrs by SRB assay. The format is functional, cell-based.
The next data set deals with PANC-1. As to the kind of experiment: Cytotoxicity against human PANC1 cells assessed as reduction in cell viability measured after 48 hrs by SRB assay. Particulars: PANC-1, 48 h. The class given is functional, cell-based.
The subject of a further data set is DU-145. As to the kind of experiment: Cytotoxicity against human DU145 cells assessed as reduction in cell viability measured after 48 hrs by SRB assay. The class given is functional, cell-based. The settings on record: DU-145, 48 h.
For another data set, the system named is HEK293. As to the kind of experiment: Cytotoxicity against HEK293 cells assessed as reduction in cell viability measured after 48 hrs by SRB assay. The class given is cell-based. Particulars: Homo sapiens, HEK293, 48 h.

Each structure is given as a SMILES string. Some results are limits rather than exact numbers.

Regarding `COc1cc2c(c(OC)c1OC)-c1c(cc3c(c1OC)OCO3)C[C@H](C)[C@@](C)(O)/C2=N/OCc1cn(-c2ccc(C(C)=O)cc2)nn1`, the IC50 in the data set with MDA-MB-231 was 70.8 µM; in the data set with A549, 95.7 µM; with IMR-32 it was 86.4 µM; with SiHa, 71.1 µM; in the data set with PANC-1, 80.3 µM; in the data set with DU-145, 92.4 µM. For the same compound, in the data set on HEK293, the IC50 was more than 100 µM. Further, in data set [1], the selectivity ratio turned out to be 1.08.

Regarding `COc1cc(OC)c(-n2cc(CO/N=C3\c4cc(OC)c(OC)c(OC)c4-c4c(cc5c(c4OC)OCO5)C[C@H](C)[C@@]3(C)O)nn2)cc1OC`, the IC50 stood at 72.8 µM in the data set on MDA-MB-231; 87.5 µM in the data set with A549; 76.8 µM in the data set on IMR-32; 69.5 µM in the data set with SiHa; 76.8 µM in the data set on PANC-1; 86.2 µM with DU-145. Besides, the IC50 with HEK293 was more than 100 µM. Further, the selectivity ratio in data set [1] was 1.1.

For the compound `COc1cc(-n2cc(CO/N=C3\c4cc(OC)c(OC)c(OC)c4-c4c(cc5c(c4OC)OCO5)C[C@H](C)[C@@]3(C)O)nn2)cc(OC)c1Cl`, the IC50 in the data set with MDA-MB-231 turned out to be 73.2 µM; in the data set on A549 it was 94.2 µM; with IMR-32, 79.1 µM; in the data set with SiHa it was 83.2 µM; in the data set with PANC-1 it was 86.4 µM; in the data set with DU-145, 94.7 µM. Also, in the data set on HEK293, the IC50 is more than 100 µM. For the same compound, the selectivity ratio in data set [1] came out at 1.1.

Take `CCc1ccc(-n2cc(CO/N=C3\c4cc(OC)c(OC)c(OC)c4-c4c(cc5c(c4OC)OCO5)C[C@H](C)[C@@]3(C)O)nn2)cc1`: the IC50 with MDA-MB-231 came out at 79.1 µM; with A549 it was 93.8 µM; with IMR-32, 75.8 µM; with SiHa, 89.7 µM; in the data set on PANC-1, 83.4 µM; with DU-145, 91.7 µM. Also, in the data set with HEK293, the IC50 was more than 100 µM. Further, the selectivity ratio in data set [1] came to 1.1.

In the case of `COc1cc2c(c(OC)c1OC)-c1c(cc3c(c1OC)OCO3)C[C@H](C)[C@@](C)(O)/C2=N/O`, the IC50 is 79.5 µM in the data set with MDA-MB-231; 96.4 µM in the data set with A549; 81.4 µM with IMR-32; 83.4 µM in the data set with SiHa; 84.9 µM in the data set on PANC-1; 94.7 µM in the data set with DU-145. In addition, in the data set on HEK293, the IC50 was more than 100 µM. In data set [1], the selectivity ratio was determined as 1.05.

Regarding `COc1cc2c(c(OC)c1OC)-c1c(cc3c(c1OC)OCO3)C[C@H](C)[C@@](C)(O)[C@H]2O`, the IC50 came out at 81.2 µM with MDA-MB-231; 94.2 µM in the data set on A549; 86.7 µM in the data set on IMR-32; 68.3 µM with SiHa; 78.4 µM with PANC-1; 87.4 µM in the data set on DU-145. For the same compound, the IC50 in the data set on HEK293 is more than 100 µM. For the same compound, in data set [1], the selectivity ratio amounted to 1.14.

As for `C/C=C(/C)C(=O)O[C@H]1c2cc(OC)c(OC)c(OC)c2-c2c(cc3c(c2OC)OCO3)C[C@H](C)[C@@]1(C)O` [ARISANSCHININ N], the IC50 in the data set on MDA-MB-231 is 60.5 µM; in the data set with A549, 55.1 µM; in the data set on IMR-32, 66.8 µM; in the data set on SiHa, 51.2 µM; in the data set with PANC-1, 53.6 µM; in the data set with DU-145, 64.7 µM. Moreover, in the data set on HEK293, the IC50 was 52 µM. Also, in data set [1], the selectivity ratio worked out at 1.6.

`COc1cc2c(c(OC)c1OC)-c1c(cc3c(c1OC)OCO3)C[C@H](C)[C@@](C)(O)/C2=N/OCc1cn(CC(=O)Nc2ccc(I)cc2Cl)nn1`: the IC50 with MDA-MB-231 is 82.9 µM; in the data set on A549, 97.5 µM; in the data set with IMR-32, 81.6 µM; in the data set on SiHa it was 86.4 µM; with PANC-1, 92.1 µM; with DU-145 it was 98.7 µM. For the same compound, the IC50 in the data set on HEK293 is more than 100 µM. Moreover, the selectivity ratio in data set [1] is 1.01.

As to `COc1cc2c(c(OC)c1OC)-c1c(cc3c(c1OC)OCO3)C[C@H](C)[C@@](C)(O)/C2=N/OCc1cn(CC(=O)Nc2ccc(C)cc2)nn1`, the IC50 came out at 72.6 µM in the data set on MDA-MB-231; 84.6 µM in the data set on A549; 79.2 µM with IMR-32; 64.9 µM in the data set with SiHa; 71.6 µM in the data set on PANC-1; 86.4 µM in the data set with DU-145. In the data set with HEK293, the IC50 is more than 100 µM. Also, the selectivity ratio in data set [1] was found to be 1.15.

Regarding `COc1cc2c(c(OC)c1OC)-c1c(cc3c(c1OC)OCO3)C[C@H](C)[C@@](C)(O)/C2=N/OCc1cn(-c2cc(C)cc(C)c2)nn1`, the IC50 in the data set on MDA-MB-231 amounted to 81.4 µM; in the data set on A549 it was 91.7 µM; with IMR-32, 79.8 µM; with SiHa, 85.1 µM; in the data set on PANC-1 it was 89.3 µM; with DU-145, 90.6 µM. Besides, the IC50 with HEK293 was more than 100 µM. In data set [1], the selectivity ratio amounted to 1.1.

Take `COc1cccc2c1C(=O)c1c(O)c3c(c(O)c1C2=O)C[C@@](O)(C(=O)CO)C[C@@H]3O[C@H]1C[C@H](N)[C@H](O)[C@H](C)O1` [DOXORUBICIN]: the IC50 was 1.6 µM in the data set on A549; 2.3 µM with IMR-32; 1.5 µM in the data set on SiHa; 1.9 µM in the data set with PANC-1; 2.4 µM in the data set on DU-145; 10 µM with HEK293.

For `COc1cc2c(c(OC)c1OC)-c1c(cc3c(c1OC)OCO3)C[C@H](C)[C@@](C)(O)/C2=N/OCc1cn(-c2cc([N+](=O)[O-])ccc2Cl)nn1`, the IC50 in the data set with MDA-MB-231 was 85.7 µM; with A549, 96.4 µM; with IMR-32, 86.4 µM; with SiHa, 94.5 µM; in the data set with PANC-1, 93.4 µM; in the data set on DU-145, 95.1 µM. Further, in the data set with HEK293, the IC50 was more than 100 µM. Moreover, in data set [1], the selectivity ratio is 1.1.

In the case of `COc1cc2c(c(OC)c1OC)-c1c(cc3c(c1OC)OCO3)C[C@H](C)[C@@](C)(O)/C2=N/OCc1cn(-c2cccc([N+](=O)[O-])c2)nn1`, the concentration for half-maximal inhibition (IC50) was 83.7 µM in the data set on MDA-MB-231; 96.1 µM in the data set on A549; 86.1 µM with IMR-32; 96.5 µM in the data set with SiHa; 95.7 µM with PANC-1; 98.4 µM in the data set with DU-145. In the data set on HEK293, the IC50 is more than 100 µM. In addition, the selectivity ratio in data set [1] was found to be 1.

Consider `COc1cc2c(c(OC)c1OC)-c1c(cc3c(c1OC)OCO3)C[C@H](C)[C@@](C)(O)/C2=N/OCc1cn(-c2cccc(C)c2Cl)nn1`, for which the IC50 in the data set with MDA-MB-231 amounted to 73.8 µM; in the data set with A549 it was 85.6 µM; with IMR-32 it was 78.3 µM; in the data set on SiHa it was 69.2 µM; in the data set on PANC-1, 81.9 µM; with DU-145, 88.6 µM. In addition, in the data set with HEK293, the IC50 is more than 100 µM. In data set [1], the selectivity ratio is 1.1.

For `COc1cc2c(c(OC)c1OC)-c1c(cc3c(c1OC)OCO3)C[C@H](C)[C@@](C)(O)/C2=N/OCc1cn(-c2ccccc2C#N)nn1`, the IC50 in the data set with MDA-MB-231 came out at 71.1 µM; in the data set on A549, 94.2 µM; in the data set on IMR-32, 79.8 µM; in the data set on SiHa, 86.4 µM; in the data set with PANC-1, 87.3 µM; with DU-145, 92.7 µM. Also, in the data set with HEK293, the IC50 is more than 100 µM. For the same compound, the selectivity ratio in data set [1] worked out at 1.1.

Consider `COc1ccc(OC)c(-n2cc(CO/N=C3\c4cc(OC)c(OC)c(OC)c4-c4c(cc5c(c4OC)OCO5)C[C@H](C)[C@@]3(C)O)nn2)c1`, for which the IC50 with MDA-MB-231 was determined as 73.8 µM; in the data set on A549, 91.8 µM; in the data set on IMR-32, 76.5 µM; in the data set on SiHa, 74.3 µM; in the data set with PANC-1 it was 81.2 µM; with DU-145, 86.7 µM. Moreover, the IC50 in the data set on HEK293 is more than 100 µM. In addition, the selectivity ratio in data set [1] stood at 1.1.
